Experimental data: the supplement of paper PMC10307832

What was measured:
Test in all cases: relative viability (nuclei count vs DMSO), 5 days (fraction); higher = more cells survive
201T = test system: 201T
In short: (§1)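 Five library-drug doses in √10 steps were combined with a fixed anchor-drug dose, or a single drug was given alone, by pin tool to lung cancer cell lines in 1536-well plates the day after seeding. Nuclei were stained and counted after 5 days. Relative viability is the nuclei count in treated wells over that in vehicle wells, taken as the median of duplicate plates.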

BEN = test system: BEN
In short: as §1

EMC-BAC-2 = test system: EMC-BAC-2
In short: as §1

HARA = test system: HARA
In short: as §1

HCC-44 = test system: HCC-44
In short: as §1

LCLC-103H = test system: LCLC-103H
In short: as §1

LOU-NH91 = test system: LOU-NH91
In short: as §1

NCI-H1395 = test system: NCI-H1395
In short: as §1

NCI-H1993 = test system: NCI-H1993
In short: as §1

NCI-H2023 = test system: NCI-H2023
In short: as §1

NCI-H2087 = test system: NCI-H2087
In short: as §1

NCI-H2126 = test system: NCI-H2126
In short: as §1

NCI-H2347 = test system: NCI-H2347
In short: as §1

NCI-H23 = test system: NCI-H23
In short: as §1

NCI-H3122 = test system: NCI-H3122
In short: as §1

NCI-H441 = test system: NCI-H441
In short: as §1

NCI-H596 = test system: NCI-H596
In short: as §1

NCI-H647 = test system: NCI-H647
In short: as §1

NCI-H650 = test system: NCI-H650
In short: as §1

NCI-H727 = test system: NCI-H727
In short: as §1

NCI-H838 = test system: NCI-H838
In short: as §1

Compound: COc1cc2nccc(Oc3ccc(NC(=O)Nc4cc(C)on4)c(Cl)c3)c2cc1OC [Tivozanib] + Cc1nc(NC(=O)N2CCC[C@H]2C(N)=O)sc1-c1ccnc(C(C)(C)C(F)(F)F)c1 [Alpelisib] (partner 2 µM)
- relative viability (201T; first compound 0.005 µM): 0.993
- relative viability (201T; first compound 0.01581 µM): 1
- relative viability (201T; first compound 0.05 µM): 1.05
- relative viability (201T; first compound 0.1581 µM): 1.02
- relative viability (201T; first compound 0.5 µM): 1.08
- relative viability (BEN; first compound 0.005 µM): 0.991
- relative viability (BEN; first compound 0.01581 µM): 1.04
- relative viability (BEN; first compound 0.05 µM): 1.03
- relative viability (BEN; first compound 0.5 µM): 1.05
- relative viability (EMC-BAC-2; first compound 0.005 µM): 0.722
- relative viability (EMC-BAC-2; first compound 0.01581 µM): 0.736
- relative viability (EMC-BAC-2; first compound 0.05 µM): 0.753
- relative viability (EMC-BAC-2; first compound 0.1581 µM): 0.696
- relative viability (EMC-BAC-2; first compound 0.5 µM): 0.774
- relative viability (HARA; first compound 0.005 µM): 0.911
- relative viability (HARA; first compound 0.01581 µM): 0.838
- relative viability (HARA; first compound 0.05 µM): 0.908
- relative viability (HARA; first compound 0.1581 µM): 0.877
- relative viability (HARA; first compound 0.5 µM): 0.798
- relative viability (HCC-44; first compound 0.005 µM): 0.815
- relative viability (HCC-44; first compound 0.01581 µM): 0.758
- relative viability (HCC-44; first compound 0.05 µM): 0.803
- relative viability (HCC-44; first compound 0.1581 µM): 0.756
- relative viability (HCC-44; first compound 0.5 µM): 0.831
- relative viability (LCLC-103H; first compound 0.005 µM): 0.951
- relative viability (LCLC-103H; first compound 0.01581 µM): 0.938
- relative viability (LCLC-103H; first compound 0.05 µM): 1.04
- relative viability (LCLC-103H; first compound 0.1581 µM): 0.997
- relative viability (LCLC-103H; first compound 0.5 µM): 1.01
- relative viability (LOU-NH91; first compound 0.005 µM): 0.69
- relative viability (LOU-NH91; first compound 0.01581 µM): 0.698
- relative viability (LOU-NH91; first compound 0.05 µM): 0.778
- relative viability (LOU-NH91; first compound 0.1581 µM): 0.732
- relative viability (LOU-NH91; first compound 0.5 µM): 0.752
- relative viability (NCI-H1395; first compound 0.005 µM): 0.951
- relative viability (NCI-H1395; first compound 0.01581 µM): 1.08
- relative viability (NCI-H1395; first compound 0.05 µM): 1.01
- relative viability (NCI-H1395; first compound 0.1581 µM): 1.05
- relative viability (NCI-H1395; first compound 0.5 µM): 0.91
- relative viability (NCI-H1993; first compound 0.005 µM): 0.657
- relative viability (NCI-H1993; first compound 0.01581 µM): 0.741
- relative viability (NCI-H1993; first compound 0.05 µM): 0.688
- relative viability (NCI-H1993; first compound 0.1581 µM): 0.688
- relative viability (NCI-H1993; first compound 0.5 µM): 0.695
- relative viability (NCI-H2023; first compound 0.005 µM): 0.553
- relative viability (NCI-H2023; first compound 0.01581 µM): 0.578
- relative viability (NCI-H2023; first compound 0.05 µM): 0.634
- relative viability (NCI-H2023; first compound 0.1581 µM): 0.589
- relative viability (NCI-H2023; first compound 0.5 µM): 0.61
- relative viability (NCI-H2087; first compound 0.005 µM): 1.04
- relative viability (NCI-H2087; first compound 0.01581 µM): 1.03
- relative viability (NCI-H2087; first compound 0.05 µM): 1.18
- relative viability (NCI-H2087; first compound 0.1581 µM): 0.886
- relative viability (NCI-H2087; first compound 0.5 µM): 1.04
- relative viability (NCI-H2126; first compound 0.005 µM): 0.708
- relative viability (NCI-H2126; first compound 0.01581 µM): 0.757
- relative viability (NCI-H2126; first compound 0.05 µM): 0.763
- relative viability (NCI-H2126; first compound 0.1581 µM): 0.53
- relative viability (NCI-H2126; first compound 0.5 µM): 0.734
- relative viability (NCI-H2347; first compound 0.005 µM): 1.01
- relative viability (NCI-H2347; first compound 0.01581 µM): 1.03
- relative viability (NCI-H2347; first compound 0.05 µM): 1.03
- relative viability (NCI-H2347; first compound 0.1581 µM): 1.1
- relative viability (NCI-H2347; first compound 0.5 µM): 0.987
- relative viability (NCI-H23; first compound 0.005 µM): 0.735
- relative viability (NCI-H23; first compound 0.01581 µM): 0.651
- relative viability (NCI-H23; first compound 0.05 µM): 0.615
- relative viability (NCI-H23; first compound 0.1581 µM): 0.497
- relative viability (NCI-H23; first compound 0.5 µM): 0.561
- relative viability (NCI-H3122; first compound 0.005 µM): 0.668
- relative viability (NCI-H3122; first compound 0.01581 µM): 0.792
- relative viability (NCI-H3122; first compound 0.05 µM): 0.798
- relative viability (NCI-H3122; first compound 0.1581 µM): 0.973
- relative viability (NCI-H3122; first compound 0.5 µM): 0.983
- relative viability (NCI-H441; first compound 0.005 µM): 0.711
- relative viability (NCI-H441; first compound 0.01581 µM): 0.452
- relative viability (NCI-H441; first compound 0.05 µM): 0.57
- relative viability (NCI-H441; first compound 0.1581 µM): 0.632
- relative viability (NCI-H441; first compound 0.5 µM): 0.56
- relative viability (NCI-H596; first compound 0.005 µM): 0.462
- relative viability (NCI-H596; first compound 0.01581 µM): 0.464
- relative viability (NCI-H596; first compound 0.05 µM): 0.544
- relative viability (NCI-H596; first compound 0.1581 µM): 0.47
- relative viability (NCI-H596; first compound 0.5 µM): 0.595
- relative viability (NCI-H647; first compound 0.005 µM): 1.22
- relative viability (NCI-H647; first compound 0.01581 µM): 1.17
- relative viability (NCI-H647; first compound 0.05 µM): 1.1
- relative viability (NCI-H647; first compound 0.1581 µM): 0.803
- relative viability (NCI-H647; first compound 0.5 µM): 0.958
- relative viability (NCI-H650; first compound 0.005 µM): 1.06
- relative viability (NCI-H650; first compound 0.01581 µM): 1.13
- relative viability (NCI-H650; first compound 0.05 µM): 1.1
- relative viability (NCI-H650; first compound 0.1581 µM): 1.02
- relative viability (NCI-H650; first compound 0.5 µM): 0.967
- relative viability (NCI-H727; first compound 0.005 µM): 0.505
- relative viability (NCI-H727; first compound 0.01581 µM): 0.501
- relative viability (NCI-H727; first compound 0.05 µM): 0.675
- relative viability (NCI-H727; first compound 0.5 µM): 0.615
- relative viability (NCI-H838; first compound 0.005 µM): 0.984
- relative viability (NCI-H838; first compound 0.01581 µM): 1.04
- relative viability (NCI-H838; first compound 0.05 µM): 1.04
- relative viability (NCI-H838; first compound 0.5 µM): 1.03
